Test results from patent US20070054859A1, “Estrogen receptor-related receptor alpha (ERRalpha) and cartilage formation” (priority 2001, published 2007).

Experiments:
ERRα mRNA = ERRα mRNA levels in C5.18 cultures by semi-quantitative RT-PCR, normalised against L32; format: cell-based, rat; conditions: C5.18 cultures without FBS, 10^−9M E2 versus 0.01% ethanol vehicle, day 2; FIG. 8 Panel B
Experimental: Semi-quantitative RT-PCR was carried out as described in Bonnelye et al. (2001), over the proliferation/differentiation time course of C5.18 cultures treated with Dex. Days 3 and 6 were within the proliferation phase and days 11, 15 and 21 were within the differentiation stage. ERRα expression was normalised against that of the ribosomal probe L32. For comparison, mRNA levels for three chondroblast markers, type II collagen, aggrecan and link protein, were also assessed, normalised against L32.
C5.18 cells were grown in medium with (+) and without (−) fetal bovine serum (FBS). ERRα mRNA levels were determined by semi-quantitative RT-PCR and normalised against ribosomal probe L32.
Similar C5.18 cultures were grown without FBS but in the presence of estrogen (10^−9M E2) or vehicle (0.01% ethanol) (VEH) and mRNA levels were determined as above.

ERRα [1] = biological target: T1, ERRα (Homo sapiens, UniProt P11474); conditions: cited from earlier work
T1 sequence (P11474 1-423): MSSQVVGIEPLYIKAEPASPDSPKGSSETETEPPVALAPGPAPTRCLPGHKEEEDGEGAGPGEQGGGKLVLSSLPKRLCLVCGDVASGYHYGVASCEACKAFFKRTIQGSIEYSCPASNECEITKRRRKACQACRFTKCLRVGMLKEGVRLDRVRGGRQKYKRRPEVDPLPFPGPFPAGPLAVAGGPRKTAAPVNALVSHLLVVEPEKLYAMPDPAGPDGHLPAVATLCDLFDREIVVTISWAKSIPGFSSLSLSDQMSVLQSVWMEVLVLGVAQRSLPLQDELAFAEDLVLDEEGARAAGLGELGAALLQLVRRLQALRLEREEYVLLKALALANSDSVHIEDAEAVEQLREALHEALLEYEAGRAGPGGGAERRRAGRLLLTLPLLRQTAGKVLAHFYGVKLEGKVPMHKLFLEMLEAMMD

ERRα [2] = biological target: T1, ERRα; conditions: Yang et al. (1999); Tremblay et al. (2001a); cited from earlier work

Compound	ERRα mRNA levels (ERRα mRNA)	binding to ERRα (ERRα [1])	ERRα antagonist activity (ERRα [2])
estrogen	significantly increased	does not bind	
ClC1=C(Cl)C2(Cl)C3C(Cl)C(Cl)CC3C1(Cl)C2(Cl)Cl (stereo not drawn) [chlordane]			antagonise ERRα activity
